Laboratory results: patent US20240122930A1, “INTEGRIN INHIBITORS AND USES THEREOF IN COMBINATION WITH OTHER AGENTS” (Pliant Therapeutics, Inc., priority 2022, published 2024)

Key:
[1] = test system: IPF-derived human lung fibroblasts; assay: LAP adhesion assay, IPF-derived human lung fibroblasts (xCELLigence); assay type: cell-based; conditions: adhesion to LAP, FIG. 3B
Method: Two latency associated peptide (LAP) adhesion binding assays were devised using primary human lung cells, including normal (healthy) human bronchial epithelial cells and human lung fibroblasts (healthy and IPF).
Human lung fibroblasts derived from normal and IPF lung tissue are known to express αVβ1 integrin. The IPF-derived human lung fibroblasts were prepared for the assay by dissociation with trypsin/EDTA, and were seeded at 20,000 cells per well on 96 well plates (ACEA Bioscience E-plate View, Acea Biosciences; San Diego, CA) previously coated with […] of recombinant human LAP (R&D Systems; Minneapolis, MN) and blocked with 4% bovine serum albumin. Cell index (electrical impedance) was measured to assess cell attachment/spreading every 3 minutes for 24 hours at 37° C./5% CO2 using the xCELLigence RTCA MP Instrument (Acea Biosciences; San Diego, CA). […] In the assay, the IPF-derived human lung fibroblasts were separately incubated with: the αVβ1-selective small molecule inhibitor; the selective antibody αVβ6 inhibitor, 3G9; and Compound 5.

[2] = test system: participants with idiopathic pulmonary fibrosis (IPF); assay: Phase 2a clinical trial ([…]-IPF): Forced Vital Capacity (FVC) spirometry; assay type: in vivo, human; conditions: for Proportion of Participants with FVCpp Decline ≥10%, ITT, FIG. 20: placebo (N=23) 17.4%; for LS Mean (SE) change from Baseline in FVC at Week 12, ITT, Not on SoC subgroup, FIG. 30: placebo (n=7) −28.2; for Proportion of participants with Absolute FVCpp decline ≥10%, ITT, FIG. 31 / Proportion of participants with Relative FVCpp decline ≥10%, ITT, FIG. 29: placebo (n=31) 12.9%; for LS Mean (SE) change from Baseline in FVC at Week 12, mITT, FIG. 27: placebo (n=31) −64.2

## COCCN(CCCCc1ccc2c(n1)NCCC2)CC[C@H](Nc1ncnc2ccccc12)C(=O)O [Compound 5, (S)-4-((2-methoxyethyl) (4-(5,6,7,8-tetrahydro-1,8-naphthyridin-2-yl)butyl)amino)-2-(quinazolin-4-ylamino) butanoic acid]
[1]
  cell adhesion in the IPF-derived lung fibroblasts: substantially inhibited
[2]; 40 mg (N=17), placebo −95.2 mL
  LS Mean Change From Baseline in FVC at week 12, On SoC Subgroup (MMRM, ITT): -58.3 mL
[2]; 40 mg (N=22), 12 weeks
  Proportion of Participants with FVCpp Decline ≥10%, ITT, FIG. 20: 18.2%
[2]; 40 mg (n=5)
  LS Mean (SE) change from Baseline in FVC at Week 12, ITT, Not on SoC subgroup, FIG. 30: -43.5 mL
[2]; 40 mg (n=22)
  Proportion of participants with Absolute FVCpp decline ≥10%, ITT, FIG. 31: 9.1%
  Proportion of participants with Relative FVCpp decline ≥10%, ITT, FIG. 29: 18.2%
[2]; 80 mg (N=23), 12 weeks
  Proportion of Participants with FVCpp Decline ≥10%, ITT, FIG. 20: 8.7%
[2]; 80 mg (n=4)
  LS Mean (SE) change from Baseline in FVC at Week 12, ITT, Not on SoC subgroup, FIG. 30: 138.5 mL
[2]; 80 mg (n=23)
  Proportion of participants with Absolute FVCpp decline ≥10%, ITT, FIG. 31: 8.7%
  Proportion of participants with Relative FVCpp decline ≥10%, ITT, FIG. 29: 8.7%
  LS Mean (SE) change from Baseline in FVC at Week 12, mITT, FIG. 27: 22.8 mL
[2]; 160 mg (N=22), 12 weeks
  Proportion of Participants with FVCpp Decline ≥10%, ITT, FIG. 20: 4.5%
[2]; 160 mg (n=3)
  LS Mean (SE) change from Baseline in FVC at Week 12, ITT, Not on SoC subgroup, FIG. 30: 26.4 mL
[2]; 160 mg (n=22)
  Proportion of participants with Absolute FVCpp decline ≥10%, ITT, FIG. 31: 4.5%
  Proportion of participants with Relative FVCpp decline ≥10%, ITT, FIG. 29: 4.5%
  LS Mean (SE) change from Baseline in FVC at Week 12, mITT, FIG. 27: -28.7 mL
[2]; 320 mg
  Participants with a ≥10% absolute decline in FVC over 24 weeks: no Compound 5-treated participants
[2]; 320 mg (n=4)
  LS Mean (SE) change from Baseline in FVC at Week 12, ITT, Not on SoC subgroup, FIG. 30: 19.8 mL
[2]; 320 mg (n=21)
  Proportion of participants with Absolute FVCpp decline ≥10%, ITT, FIG. 31: 0%
  Proportion of participants with Relative FVCpp decline ≥10%, ITT, FIG. 29: 0%
  LS Mean (SE) change from Baseline in FVC at Week 12, mITT, FIG. 27: 26.8 mL
[2]; 320 mg, 12 weeks
  Participants with a decline of ≥10% in percent predicted FVC (FVCpp): No participants
[2]; 320 mg, Week 24
  Reduction of the decline from baseline in FVCpp compared to placebo: 68%
[2]; 320 mg, patients on standard of care (pirfenidone or nintedanib), placebo 172.8 mL
  Average decrease in FVC at 24 weeks, ITT, SoC subgroup, FIG. 35: 35.0 mL
[2]; 320 mg, placebo 0%
  Patients showing an improvement in FVC at 24 weeks, ITT, FIG. 36: 50%
[2]; 320 mg, placebo 109.3 mL
  Average decrease in FVC at 24 weeks, ITT, FIG. 34: 35.9 mL
[2]; 320 mg, placebo −[…]
  Change in FVC percent predicted from baseline at Week 24, ITT, FIG. 37: −0.8%
[2]; 40, 80, 160 mg, 12 weeks
  Proportion of participants with FVCpp decline of ≥10%: dose-dependent reduction
[2]; pooled Compound 5 groups 40-160 mg (n = 67), placebo −74.1 mL
  Change in FVC from Baseline to Week 12 (MMRM, ITT): -15.1 mL
[2]; pooled active groups 40-160 mg
  Reduction in FVC decline over 12 weeks compared to placebo: 80%
